# Like-named read-outs stand apart in the source and are kept apart here.
# What was measured:
# Ly1B50 DLBCL cells = assay: Growth inhibition of DLBCL cells, Ly1B50; format: cell-based; conditions: Bcl6 independent, read-out: GI 50 Ly1B50
# Procedure: (§1) 50,000 cells per well were treated for 48 hours with different concentrations of the compounds in 96 well plates, using DMSO as a control. Then, viability was determined with Cell Titer Blue™ (Promega) and growth inhibition was calculated as the percentage of viable cells with respect to cells treated with DMSO alone. GI50 values were determined by dose-response curves.
# (§2) 293T cells were grown in Dulbecco's modified Eagles medium supplemented with 10% fetal bovine serum (FBS) (Gemini Bio-Products, Woodland, Calif.) and 1% penicillin-streptomycin. DLBCL cell lines OCI-Ly1, OCI-Ly1-B50, OCI-Ly7, OCI-Ly10 and OCI-Ly19 were grown in 80% Iscove's medium, 20% FBS and penicillin G/streptomycin. DLBCL cell lines Toledo, Farage, SU-DHL4, DOHH-2, SC-1, RCK8, TMD8, HBL-1, Ly3, Karpas 422 and SU-DHL6 were cultured in 90% RPMI medium, 10% FBS, 2 mM glutamine, 10 mM Hepes and penicillin G/streptomycin. All cell lines were cultured at 37° C. in a humidified atmosphere of 5% CO2.
# Ly4 DLBCL cells = assay: Growth inhibition of DLBCL cells, Ly4; format: cell-based; conditions: Table 9; Bcl6 independent; read-out: GI 50 Ly4
# Procedure: as §1
# Ly3 DLBCL cells = assay: Growth inhibition of DLBCL cells, Ly3; format: cell-based; conditions: Bcl6 dependent, read-out: GI 50 Ly3
# Procedure: as §1, §2
# Ly7 DLBCL cells = assay: Growth inhibition of DLBCL cells, Ly7; format: cell-based
# Procedure: as §1, §2
# WSU-DLCL2 DLBCL cells = assay: Growth inhibition of DLBCL cells, WSU-DLCL2; format: cell-based; conditions: Homo sapiens, WSUDLCL2, Bcl6 independent, read-out: GI 50 WSUDLCL2
# Procedure: as §1
# Ly1 DLBCL cells = assay: Growth inhibition of DLBCL cells, Ly1; format: cell-based; conditions: Bcl6 dependent, read-out: GI 50 Ly1
# Procedure: as §1, §2
# Ly10 DLBCL cells = assay: Growth inhibition of DLBCL cells, Ly10; format: cell-based; conditions: Table 9, Bcl6 dependent, read-out: GI 50 Ly10
# Procedure: as §1, §2
# SUDHL6 DLBCL cells = assay: Growth inhibition of DLBCL cells, SUDHL6; format: cell-based; conditions: Homo sapiens, SU-DHL-6
# Procedure: as §1, §2
# Toledo DLBCL cells = assay: Growth inhibition of DLBCL cells, Toledo; format: cell-based; conditions: Homo sapiens
# Procedure: as §1, §2
# Karpas 422 DLBCL cells = assay: Growth inhibition of DLBCL cells, Karpas 422; format: cell-based; conditions: Homo sapiens, read-out: GI 50 K422
# Procedure: as §1, §2
# BCL6-BTB = BCL6-BTB (Homo sapiens, UniProt P41182); assay: MicroScale Thermophoresis binding to BCL6-BTB; conditions: Table 10
# Procedure: BCL6 is also required for normal development of germinal center (GC) B-cells.
# Recombinant BCL6-BTB was labeled using the RED-NHS Labeling kit (NanoTemper Technologies). […] The label:protein ratio was determined using photometry at 650 nm and Bradford reagent. […] The labeled BCL6-BTB was adjusted to 400 nM with PBS (Thermo) buffer supplemented with 0.05% Tween-80 (Fisher scientific). […] After 10 min incubation, approximately 4 μL of each solution was filled into Monolith NT Standard Treated Capillaries (NanoTemper Technologies GmbH). Thermophoresis was measured using a Monolith NT.115 instrument (NanoTemper Technologies GmbH) at an ambient temperature of 25° C. with 5 s/30 s/5 s laser off/on/off times, respectively. Instrument parameters were adjusted with 90% LED power and 40% MST power. Data of three independent experiments were analyzed (NT.Analysis software version 1.5.41, NanoTemper Technologies) using the signal from Thermophoresis.
# [1] = Table 9, Bcl6 dependent, read-out: GI 50 Ly7
# [2] = Table 9, Bcl6 dependent, read-out: GI 50 SUDHL6
# [3] = Table 10, BCL6 dependent, read-out: GI50 SUDHL6
# [4] = Table 9, Bcl6 independent, read-out: GI 50 Toledo
# [5] = Table 4, Bcl6 dependent, read-out: GI 50 Ly7
# [6] = Table 4, Bcl6 dependent, read-out: GI 50 SUDHL6
# [7] = Table 4, Bcl6 independent, read-out: GI 50 Toledo
Compound,GI50 (Ly1B50 DLBCL cells; Table 9) [µM],GI50 (Ly4 DLBCL cells) [µM],GI50 (Ly3 DLBCL cells; Table 9) [µM],GI50 (Ly7 DLBCL cells; [1]) [µM],"GI50 (Ly7 DLBCL cells; Table 10, BCL6 dependent) [µM]",GI50 (WSU-DLCL2 DLBCL cells; Table 9) [µM],GI50 (Ly1 DLBCL cells; Table 9) [µM],GI50 (Ly10 DLBCL cells) [µM],GI50 (SUDHL6 DLBCL cells; [2]) [µM],GI50 (SUDHL6 DLBCL cells; [3]) [µM],GI50 (Toledo DLBCL cells; [4]) [µM],"GI50 (Toledo DLBCL cells; Table 10, BCL6 independent) [µM]",GI50 (Ly1B50 DLBCL cells; Table 4) [µM],GI50 (Ly3 DLBCL cells; Table 4) [µM],GI50 (Ly7 DLBCL cells; [5]) [µM],GI50 (WSU-DLCL2 DLBCL cells; Table 4) [µM],GI50 (Ly1 DLBCL cells; Table 4) [µM],GI50 (SUDHL6 DLBCL cells; [6]) [µM],GI50 (Toledo DLBCL cells; [7]) [µM],"GI50 (Karpas 422 DLBCL cells; Table 4, Bcl6 independent) [µM]",other results
O=C(CN1C(=O)C(=O)c2cc(Cl)ccc21)OCc1ccc(Cl)cc1 [Compound 355],55,81,54,45,43 ± 3,52,37,62,1,42 ± 10,35,45 ± 7,–,–,–,–,–,–,–,–,"GI50 (Karpas 422 DLBCL cells; Table 9, Bcl6 independent): 38 µM"
O=C(CN1C(=O)C(=O)c2cc(Cl)ccc21)OCc1ccc(F)cc1 [Compound 357],56,> 125,79,25,30 ± 10,100,81,60,1,22 ± 3,51,50 ± 1,–,–,–,–,–,–,–,–,"GI50 (Karpas 422 DLBCL cells; Table 9, Bcl6 independent): 58 µM"
O=C(CN1C(=O)C(=O)c2cc(Cl)ccc21)OCc1cccc(F)c1 [Compound 358],> 125,> 125,> 125,20,40 ± 10,> 125,> 125,> 125,2,27 ± 4,69,82 ± 20,–,–,–,–,–,–,–,–,"GI50 (Karpas 422 DLBCL cells; Table 9, Bcl6 independent): > 125 µM"
O=C(CN1C(=O)C(=O)c2cc(Cl)ccc21)OCc1ccsc1 [Compound 367],–,–,–,–,22 ± 4,–,–,–,–,15 ± 7,–,53 ± 10,–,–,–,–,–,–,–,–,Kd (BCL6-BTB): 324 ± 34 µM
Cc1cccc(COC(=O)CN2C(=O)/C(=C3\SC(=S)N(CCC(=O)O)C3=O)c3cc(Cl)ccc32)c1 [Compound 374],–,–,–,–,–,–,–,–,–,–,–,–,> 125,> 125,> 125,99 ± 20,> 125,48 ± 17,> 125,> 125,–
O=C(O)CCN1C(=O)/C(=C2/C(=O)N(CC(=O)OCc3ccc(C(F)(F)F)cc3)c3ccc(Cl)cc32)SC1=S [Compound 375],–,–,–,–,–,–,–,–,–,–,–,–,> 125,> 125,> 125,> 125,> 125,29 ± 14,> 125,> 125,–
O=C(O)CCN1C(=O)/C(=C2/C(=O)N(CC(=O)OCc3ccc(F)cc3)c3ccc(Cl)cc32)SC1=S [Compound 377],–,–,–,–,–,–,–,–,–,–,–,–,> 125,> 125,> 125,> 125,> 125,104,> 125,> 125,–
O=C(O)CCN1C(=O)/C(=C2/C(=O)N(CC(=O)OCc3cccc(F)c3)c3ccc(Cl)cc32)SC1=S [Compound 378],–,–,–,–,–,–,–,–,–,–,–,–,> 125,> 125,> 125,> 125,> 125,53.4,> 125,> 125,–
O=C(O)CCN1C(=O)/C(=C2/C(=O)N(CC(=O)OCc3cccc(C(F)(F)F)c3)c3ccc(Cl)cc32)SC1=S [Compound 380],–,–,–,–,–,–,–,–,–,–,–,–,68,71 ± 18,94 ± 19,67 ± 12,106 ± 20,18 ± 7,93 ± 23,69 ± 4,–
C[C@@H](OC(=O)CN1C(=O)/C(=C2\SC(=S)N(CCC(=O)O)C2=O)c2cc(Cl)ccc21)c1ccccc1 [Compound 381],–,–,–,–,–,–,–,–,–,–,–,–,> 125,> 125,> 125,> 125,> 125,22 ± 8,> 125,> 125,–
